Assay results taken from ChEMBL document CHEMBL1201862, “PubChem BioAssay data set” (2004).
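A five-concentration, 48-hour dose response in 96-well plates underlies each endpoint, interpolated linearly between surrounding concentrations. GI50 = concentration required for 50% inhibition of growth.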 Activity calls are given as the source filed them. No stated cut-off is given here; in the data, active = GI50 up to about 1.1 µM and inactive = higher.

Columns and labels:
Test in all cases: NCI-60 cell line screen, 48 h
[1] = system: COLO 205
[2] = system: HOP-62
[3] = system: K562
[4] = system: MDA-MB-435
[5] = system: MDA-N
[6] = system: MOLT-4
[7] = system: Malme-3M
[8] = system: OVCAR-4
[9] = system: PC-3
[10] = system: SF-295
[11] = system: SF-539
[12] = system: SK-MEL-28
[13] = system: SK-MEL-5
[14] = system: SNB-75
[15] = system: SR
[16] = system: T47D
[17] = system: U-251
[18] = system: UACC-62
[19] = system: UO-31
[20] = system: HCC 2998

Measured: GI50

O=C(O)c1cccc(S(=O)(=O)NCCO)c1
inactive: [1] > 100 µM | [2] > 100 µM | [3] > 100 µM | [4] > 100 µM | [5] > 100 µM | [6] > 100 µM | [7] > 100 µM | [8] > 100 µM | [9] > 100 µM | [10] > 100 µM | [11] > 100 µM | [12] > 100 µM | [13] > 100 µM | [14] > 100 µM | [15] > 100 µM | [16] > 100 µM | [17] > 100 µM | [18] > 100 µM | [19] > 100 µM

CC(=O)Oc1ccc2cc(-c3ccc(OC(C)=O)c(OC(C)=O)c3)c(=O)oc2c1
inactive: [1] > 100 µM | [20] > 100 µM | [2] > 100 µM | [3] 49.8 µM | [4] 61.5 µM | [5] > 100 µM | [6] > 100 µM | [7] > 100 µM | [8] 27.1 µM | [9] 84.5 µM | [10] 52.8 µM | [11] > 100 µM | [12] 81.7 µM | [15] 87.7 µM | [16] 24.5 µM | [17] 67.1 µM | [19] 56 µM

COC(=O)C1=C(C(=O)OC)C(C(=O)c2ccccc2)N2N=C(c3ccc(Cl)cc3)C=CC12 (centres undefined)
inactive: [1] > 100 µM | [20] > 100 µM | [2] > 100 µM | [3] 30.3 µM | [4] 9.44 µM | [5] 15.3 µM | [6] 5.69 µM | [7] 11.2 µM | [8] 19.2 µM | [9] 9.82 µM | [10] 44.7 µM | [11] > 100 µM | [12] > 100 µM | [13] 9.23 µM | [15] > 100 µM | [16] > 100 µM | [17] > 100 µM | [18] 23.9 µM | [19] > 100 µM

Clc1ccc(Cc2nc3cc(CCN4CCN(c5ccccc5)CC4)ccc3[nH]2)cc1
inactive: [1] 4.06 µM | [2] 15.4 µM | [3] 5.93 µM | [4] 12.9 µM | [5] 15.3 µM | [6] 6.62 µM | [7] 15.7 µM | [8] 10.3 µM | [9] 18.6 µM | [10] 12.3 µM | [11] 17.3 µM | [12] 19.1 µM | [13] 12.6 µM | [14] 12.8 µM | [15] 8.02 µM | [16] 7.01 µM | [17] 13 µM | [18] 16 µM | [19] 8.07 µM
